As a reminder, the EC50 is the concentration needed to bring the measured effect to its halfway point. Higher therefore signals weaker potency.

This note sets out measurements from patent US5863935A, “Therapeutic heterocyclic compounds” (Zeneca Limited, priority 1990, dated 1999).

For one series, the target named is "5-HT1 -like" receptor (Oryctolagus cuniculus, UniProt P49144). Nature of the series: Agonist activity, contraction of rabbit lateral saphenous vein rings.
In another series the test system is cynomolgus monkeys. The following applies: cynomolgus monkey, in vivo, po, 50 mg/kg. The method, then:
(§1) The hydrochloride salt of the compound of Synthetic Examples 2/3 was administered orally by gavage to Wistar rats as a solution in distilled water at dosages of 25, 100 and 200 mg/kg base and to Beagle dogs at dosages of 0.25, 0.50, 1.0 and 2.0 mg/kg base once a dav for 14 days. In a separate dog study over 30 days, the dosage of the free base was increased from 2 mg/kg on Day 1 to 100 mg/kg on Day 30. The free base was also administered orally to cynomolgus monkeys at a dosage of 50 mg/kg once a day for 15 days.

Another series has as its system dog. Nature of the series: 30-day escalating-dose toxicity study in dogs. The format is in vivo. The following applies: free base, 30 days, dosage increased from 2 mg/kg on Day 1 to 100 mg/kg on Day 30. The method, then:
as §1

For a further series, the system named is Beagle dogs. Nature of the series: 14-day oral toxicity in Beagle dogs. The format is in vivo, dog. The following applies: hydrochloride salt, oral gavage, Beagle dogs, 0.25, 0.50, 1.0 and 2.0 mg/kg base once a day for 14 days. The method, then: as §1

Chain of "5-HT1 -like" receptor (P49144 whole entry): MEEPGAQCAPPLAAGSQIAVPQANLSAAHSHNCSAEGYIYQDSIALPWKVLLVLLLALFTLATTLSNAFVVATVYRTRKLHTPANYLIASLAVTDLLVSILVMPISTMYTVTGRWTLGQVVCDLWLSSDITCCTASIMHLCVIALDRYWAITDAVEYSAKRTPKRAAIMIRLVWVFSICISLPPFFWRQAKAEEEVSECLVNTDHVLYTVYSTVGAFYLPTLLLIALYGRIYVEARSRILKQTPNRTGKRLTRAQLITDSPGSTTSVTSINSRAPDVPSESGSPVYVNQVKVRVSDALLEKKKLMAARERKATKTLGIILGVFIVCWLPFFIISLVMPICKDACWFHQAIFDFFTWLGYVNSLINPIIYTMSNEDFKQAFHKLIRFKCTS

On "5-HT1 -like" receptor, `CN1CCC(c2c[nH]c3ccc(CC4COC(=O)N4)cc23)CC1` (racemic) [4/5, (±)-3-(1-methyl-4-piperidyl)-5-(2-oxo-1,3-oxazolidin-4-yl-methyl)-1H-indole] gave an EC50 of 501 nM.

At "5-HT1 -like" receptor, `CN(C)CCc1c[nH]c2ccc(C[C@H]3COC(=O)N3)cc12` [2/3, (S)-N,N-dimethyl-2-[5-(2-oxo-1,3-oxazolidin-4-ylmethyl)-1H-indol-3-yl]ethylamine 0.9 isopropanolate 0.5 hydrate] showed an EC50 of 100 nM. For the same compound, the Toxicity entry in the series with cynomolgus monkeys, with dog and in the series with Beagle dogs was “No evidence of toxicity” each time.
